Experimental data published in patent publication US7259271B2, “Peripherally-selective inhibitors of dopamine-β-hydroxylase and method of their preparation” (Portela & C.A., S.A., priority 2002, dated 2007).

Experiments:
human DβH = molecular target: T1, human DβH (Homo sapiens, UniProt P09172); experiment: DβH activity (β-hydroxylation of dopamine to noradrenaline) in SK-N-SH cells; type: cell-based; details: for remaining activity at 5 µM: SK-N-SH, 0.75 h, read-out: DβH activity in SK-N-SH cells, Mean ± SEM; for IC50 values against human DβH activity (in words): concentration-dependent decrease in β-hydroxylation of dopamine; for IC50: read-out: IC50 for inhibition of DβH in SK-N-SH cells
T1 construct: SK-N-SH cells (ATCC HTB-11), a human neuroblastoma derived cell line, were used as a source of human DβH; host or cells: SK-N-SH cells
T1 sequence (P09172 1-617): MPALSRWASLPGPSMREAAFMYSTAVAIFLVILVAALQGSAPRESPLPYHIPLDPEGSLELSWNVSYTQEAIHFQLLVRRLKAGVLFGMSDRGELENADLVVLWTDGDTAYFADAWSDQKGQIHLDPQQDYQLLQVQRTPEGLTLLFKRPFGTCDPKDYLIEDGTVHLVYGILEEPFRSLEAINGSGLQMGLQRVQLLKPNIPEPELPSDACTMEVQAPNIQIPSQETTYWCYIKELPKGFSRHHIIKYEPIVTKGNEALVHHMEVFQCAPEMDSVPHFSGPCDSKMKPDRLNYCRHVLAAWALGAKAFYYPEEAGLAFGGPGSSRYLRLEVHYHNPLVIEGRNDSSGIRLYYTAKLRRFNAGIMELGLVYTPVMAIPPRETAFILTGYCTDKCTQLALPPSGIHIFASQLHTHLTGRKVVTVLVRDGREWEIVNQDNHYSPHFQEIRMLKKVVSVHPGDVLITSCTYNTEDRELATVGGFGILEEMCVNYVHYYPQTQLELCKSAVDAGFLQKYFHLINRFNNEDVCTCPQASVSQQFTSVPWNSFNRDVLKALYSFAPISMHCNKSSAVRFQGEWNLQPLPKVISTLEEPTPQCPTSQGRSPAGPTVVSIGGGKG
Description: SK-N-SH cells (ATCC HTB-11), a human neuroblastoma derived cell line, were used as a source of human DβH. SK-N-SH cells cultured in 24 well plates were preincubated for 20 min in a reaction medium containing 200 mM sodium acetate, 30 mM N-ethylmaleimide, 5 μM copper sulphate, 0.5 mg/ml catalase aqueous solution, 1 mM pargyline, 10 mM sodium fumarate and 20 mM ascorbic acid. […] During preincubation and incubation, the cells were continuously shaken and maintained at 37° C. The reaction was terminated by the addition of 0.2 M perchloric acid. The acidified samples were stored at 4° C. before injection into the high pressure liquid chromatograph for the assay of noradrenaline.

[1] = system: noradrenaline tissue levels; experiment: Noradrenaline tissue levels in heart and brain of mice after oral administration; type: in vivo, mouse; details: for recovery of initial noradrenaline tissue levels: mouse heart, at 24 h; for recovery of initial noradrenaline tissue levels / Time of maximum effect (Tmax) for noradrenaline tissue reduction / duration of action in the heart: 100 mg/kg oral; for Time of maximum effect (Tmax) for noradrenaline tissue reduction / dose at which the maximal inhibitory effect was attained: mouse left ventricle; for dose at which the maximal inhibitory effect was attained / noradrenaline levels in left ventricle / noradrenaline tissue levels in the brain parietal cortex: 9 h after oral administration; for duration of action in the heart / noradrenaline levels in left ventricle / noradrenaline tissue levels in the brain parietal cortex: mouse; for duration of action in the heart: time course
Description: (§1) Male NMRI mice or Wistar rats were obtained from Harlan-lnterfauna (Spain) and were kept 10 and 5 per cage respectively, under controlled environmental conditions (12 h light/dark cycle and room temperature 22±1° C.). Food and tap water were allowed ad libitum and experimentation was performed during daylight hours.
(§2) At time =0 h, animals were administered with either test compounds at a given dose or vehicle (water) delivered orally via gavage. At 2, 6, 9, 12, 18 and 24 h post dose, the animals were sacrificed by decapitation and heart (left atrium and left ventricle) and brain (frontal and parietal cortex) were isolated, weighed and stored in a volume of 0.2 M perchloric acid for 12 h at 4° C. in the dark. Post incubation, the resulting supernatants were collected by centrifuge filtration of incubates ([…]/10 min/˜5000 rpm, 4° C.). Supernatants were stored frozen at −80° C. until analysis. Quantification of dopamine and noradrenaline in supernatants was performed by high pressure liquid chromatography with electrochemical detection.

[2] = system: noradrenaline tissue levels; experiment: Noradrenaline tissue levels in heart and brain of rats after oral administration; type: in vivo; details: rat; for noradrenaline tissue levels in brain parietal cortex and brain frontal cortex: 9 h after oral administration; for dose dependence of effects upon noradrenaline / time of maximum effect upon noradrenaline: oral
Description: as §1, §2

[3] = prior art finding; cited from earlier work

With `NCc1c[nH]c(=S)n1[C@H]1CCc2c(F)cc(F)cc2C1` [Compound 1, nepicastat, reference compound] as the compound, how does the remaining activity at 5 µM (human DβH) read?
Its remaining activity at 5 µM is 0%.

What about the “IC50 values against human DβH activity (in words)” value (human DβH) of the same compound?
Its value is “low nM range”.

What about the IC50 (human DβH) of the same compound?
Its IC50 is 36 nM.

What about the “recovery of initial noradrenaline tissue levels” value [1] of the same compound?
The value was 50%.

And the “Time of maximum effect (Tmax) for noradrenaline tissue reduction” value [1]?
Its value is 9 h.

What about the “dose at which the maximal inhibitory effect was attained” value [1] of the same compound?
Its value is 100 mg/kg.

And the “duration of action in the heart” value [1]?
Its value is “long acting”.

What about the “noradrenaline levels in left ventricle” value [1] of the same compound?
Its value is “dose-dependent manner”.

And the “noradrenaline tissue levels in the brain parietal cortex” value [1]?
The value was “dose-dependent decrease”.

What about the “noradrenaline tissue levels in brain parietal cortex and brain frontal cortex” value [2] of the same compound?
The value was “marked decrease”.

And the “dose dependence of effects upon noradrenaline” value [2]?
Its value is “dependent on the dose administered”.

What about the “time of maximum effect upon noradrenaline” value [2] of the same compound?
The value was 9 h.

What about the “crossing of the blood brain barrier (BBB)” value [3] of the same compound?
The value was “cross the blood brain barrier”.

For `Cl.NCCc1c[nH]c(=S)n1[C@H]1COc2c(F)cc(F)cc2C1` [Compound 4, (R)-5-(2-aminoethyl)-1-(6,8-difluorochroman-3-yl)-1,3-dihydroimidazole-2-thione hydrochloride], which “inhibition of DβH activity (in words)” value (human DβH; 5 μM, as listed in Table 1) is on record?
Its value is “markedly inhibit”.

What about the remaining activity at 5 µM (human DβH) of the same compound?
The remaining activity at 5 µM was 3.3 ± 0.3%.

What about the “IC50 values against human DβH activity (in words)” value (human DβH) of the same compound?
Its value is “low nM range”.

What about the IC50 (human DβH) of the same compound?
Its IC50 is 105 nM.

What about the “recovery of initial noradrenaline tissue levels” value [1] of the same compound?
The value was 50%.

What about the “Time of maximum effect (Tmax) for noradrenaline tissue reduction” value [1] of the same compound?
Its value is 9 h.

What about the “dose at which the maximal inhibitory effect was attained” value [1] of the same compound?
Its value is 100 mg/kg.

And the “duration of action in the heart” value [1]?
Its value is “long acting”.

What about the “noradrenaline levels in left ventricle” value [1] of the same compound?
The value was “dose-dependent manner”.

What about the “noradrenaline tissue levels in the brain parietal cortex” value [1] of the same compound?
Its value is “failed to affect”.

What about the “inhibitory effects upon noradrenaline levels in left atrium and left ventricle” value ([2]; 100 mg/kg oral, 9 h) of the same compound?
Its value is “more pronounced than those elicited by 1”.

And the “noradrenaline tissue levels in brain parietal cortex and brain frontal cortex” value [2]?
Its value is “failed to affect”.

And the “dose dependence of effects upon noradrenaline” value [2]?
Its value is “dependent on the dose administered”.

And the “time of maximum effect upon noradrenaline” value [2]?
Its value is 9 h.
